The target in experiment [1] is human α5β3γ2 receptors (α5-GABAA receptor) (Homo sapiens (Human), UniProt P18507+P31644). In words: 3H-flunitrazepam competition binding, human α5β3γ2 GABAA receptor. The settings on record: HEK293 cell membranes, 1 nM 3H-flunitrazepam. In a few lines:
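HEK293 membranes stably expressing each human receptor subtype ([…]) competed against 1 nM 3H-flunitrazepam in Tris buffer, 1 h at room temperature; flumazenil defined the low-signal control. Eight-point 4-fold test-compound dilutions; GF/C filtration and scintillation counting gave IC50 by curve fitting, converted to Ki.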

Experiment [2] has as its target α5-GABAA receptor (α5, β3, γ2 subunits) (Homo sapiens (Human), UniProt P18507+P31644). In words: Whole cell patch clamp, inverse agonist efficacy in HEK293 cells expressing α5-GABAA receptor. The experiment is classed as cell-based. The settings on record: HEK293, drug 100 nM, GABA 0.05 μM, −60 mV; read-out: Compound inverse agonist efficacy %. From the text: The inventors used electrophysiological methods to determine the inverse agonist efficacy of the drugs to be tested on the α5-GABAA receptor. The detailed methods are as follows:
Different subunits of the GABAA receptor were co-expressed in the HEK293 cell line to construct a fully functional GABAA receptor. The α, β, and γ subunits are essential to form a complete functional GABAA receptor. In this example, the present disclosure had established the following cell model: α5 subunit (see GenBank Accession No.: NM_000810.3 for protein sequences), β3 subunit (see GenBank Accession No.: NM_000814.5 for protein sequences), and γ2 subunit (see GenBank Accession No.: NM_000816.3 for protein sequences) were co-expressed in the HEK293 cell line, followed by screening the monoclonal stably transfected cell line. This cell line expressed a fully functional α5-GABAA receptor.
The monoclonal stably transfected HEK293 cell line expressing α5-GABAA receptor were cultured in 10 cm culture dishes and passaged when the cells grew to 80% to 90% confluent. During passaging, the culture medium was aspirated first, then 3 mL of DPBS phosphate buffer salt (Gibco™) was added to the culture dishes, and the culture dishes were shaken slightly, and DPBS was aspirated. 1 mL of trypsin (TrypLE Express, Gibco™) was added thereto, and the cells were digested at 37° C. for 1-2 minutes. Then 3 mL of complete medium (DMEM+10% FBS (Gibco™)) was added and the cells at the bottom of the culture dishes were dispersed. The cell suspension was transferred to a 15 mL centrifugal tube (Corning) and then centrifuged at 200 g for 3 minutes. The supernatant was discarded, 4 mL of complete medium was added, and the cells were gently blown and resuspended for use. If cell passaging was performed, the cell suspension was diluted at a ratio of 1:5 or 1:10. If cells for electrophysiological detection were prepared, the cell suspension was diluted in a ratio of 1:12, then added into a 24-well dish (Corning™) in which glass slides were placed and pretreated with Poly-D-Lysine, and the experiment was carried out after the cells adhered to the wall. The cells used for electrophysiology was cultured no more than 48 hours.
Drug concentration setting: The final drug concentration used in drug screening was 100 nM, and the GABA concentration was 0.05 μM. The whole cell patch clamp technique was used in electrophysiological assays, which could refer to the literature (I. Lecker, Y. Yin, D. S. Wang and B. A. Orser, British Journal of Anaesthesia, 2013, 110 (Si), i73-i81). The compositions of the extracellular solution for electrophysiology assay were as follows: 150 mM NaCl, 5 mM KCl, 2.5 mM CaCl2, 1 mM MgCl2, 10 mM HEPES, and 10 mM glucose (pH 7.4); the formulation of the electrode internal fluid for electrophysiology use was as follows: 140 mM CsCl, 11 mM EGTA, 10 mM HEPES, 2 mM CaCl2, 1 mM MgCl2, 4 mM MgATP, and 2 mM TEA (pH 7.3). The signal acquisition used an EPC-10 amplifier and the PatchMaster software (HEKA) or Axon700B amplifier and Clampex software (AXON). The recording electrode was pulled from borosilicate glass, and the electrode resistance was 4 to 6 MQ. The ALA-VC-8PG™ system was used for drug application. Single cell that grew independently was selected for recording. During recording, the cell membrane potential was clamped at −60 mV. During experiment, an extracellular solution was applied outside the cells for about 20 seconds. When the baseline reached to a stable state, the extracellular solution was switched to the GABA solution to induce an inward current. After about 20 to 40 seconds until the current was stable, the solution was switched to a corresponding drug solution to detect the effect of the drug. At last, the solution was switched to the extracellular solution, and the experiment was terminated when the baseline returned to the level before drug application. […]
For orientation: In patch-clamp work, channel activity is measured electrically.

Read-outs that look alike come from different tables or passages of the source.

Take `Cc1nnc([C@@H]2CN(c3ccc(OCc4c(C)nnn4-c4ccc(C(F)F)cc4)nn3)CCN2)o1` [Example 34, (S)-2-(4-(6-((1-(4-(Difluoromethyl)phenyl)-4-methyl-1H-1,2,3-triazol-5-yl)methoxy)pyridazin-3-yl)piperazin-2-yl)-5-methyl-1,3,4-oxadiazole]: the Ki in experiment [1] (read-out: α5-GABAAR Ki) stood at 7.08 nM. In addition, in experiment [2], the inhibition at 0.1 µM turned out to be 42.2%.

Regarding `Cc1nnn(-c2ccc(C(F)F)cc2)c1COc1ccc(N2CCN(CCCC#N)C(=O)C2)nn1` [Example 143, 4-(4-(6-((1-(4-(Difluoromethyl)phenyl)-4-methyl-1H-1,2,3-triazol-5-yl)methoxy)pyridazin-3-yl)-2-oxopiperazin-1-yl)butanenitrile], in experiment [1] (read-out: α5-GABAAR Ki), the Ki came to 1.89 nM. In addition, the inhibition at 0.1 µM in experiment [2] was 52.5%.

As for `Cc1nnn(-c2ccc(OC(F)F)cc2)c1COc1ccc(N2CCN3CCNC(=O)[C@@H]3C2)nn1` [Example 130, (S)-8-(6-((1-(4-(Difluoromethoxy)phenyl)-4-methyl-1H-1,2,3-triazol-5-yl)methoxy)pyridazin-3-yl)octahydro-2H-pyrazino[1,2-a]pyrazin-1(6H)-one], the Ki in experiment [1] (read-out: α5-GABAAR Ki) worked out at 17.1 nM. Besides, the inhibition at 0.1 µM in experiment [2] is 57%.

In turn, `Cc1nnn(-c2ccc(C(F)F)cc2)c1COc1ccc(N2CCN3C4CCCCC4NC(=O)[C@@H]3C2)nn1` (stereo partly drawn) [Example 199, (4aS)-3-(6-((1-(4-(Difluoromethyl)phenyl)-4-methyl-1H-1,2,3-triazol-5-yl)methoxy)pyridazin-3-yl)decahydro-1H-pyrazino[1,2-a]quinoxalin-5(6H)-one] registered a Ki in experiment [1] (α5-GABAAR Ki) of 3.17 nM. Besides, the inhibition at 0.1 µM in experiment [2] is 60.2%.

As for `Cc1nnn(-c2ccc(C(F)F)cc2)c1COc1ccc(N2CCN3CC(C(C)(C)C)NC(=O)[C@@H]3C2)nn1` (single isomer, unassigned) [Example 201], in experiment [1] (read-out: α5-GABAAR Ki), the Ki was found to be 1.74 nM. The inhibition at 0.1 µM in experiment [2] was 53.9%.

Consider `Cc1nnn(-c2ccc(C(F)F)cc2)c1COc1ccc(N2CCN(Cc3ccccn3)C(=O)C2)nn1` [Example 60, 4-(6-((1-(4-(Difluoromethyl)phenyl)-4-methyl-1H-1,2,3-triazol-5-yl)methoxy)pyridazin-3-yl)-1-(pyridin-2-ylmethyl)piperazin-2-one], for which the Ki in experiment [1] (read-out: α5-GABAAR Ki) stood at 1.33 nM. Moreover, the inhibition at 0.1 µM in experiment [2] was 47.2%.

Take `Cc1nnn(-c2ccc(C(F)F)cc2)c1COc1ccc(N2CCNC(=O)CC2)nn1` [Example 3, 1-(6-((1-(4-(Difluoromethyl)phenyl)-4-methyl-1H-1,2,3-triazol-5-yl)methoxy)pyridazin-3-yl)-1,4-diazepan-5-one]: in experiment [1] (read-out: α5-GABAAR Ki), the Ki turned out to be 1.28 nM. In addition, in experiment [2], the inhibition at 0.1 µM came to 40.8%.

On to `Cc1nnn(-c2ccc(C(F)F)cc2)c1COc1ccc(N2CCN(c3ccncc3)C(=O)C2)nn1` [Example 114, 4-(6-((1-(4-(Difluoromethyl)phenyl)-4-methyl-1H-1,2,3-triazol-5-yl)methoxy)pyridazin-3-yl)-1-(pyridin-pyridin-4-yl)piperazin-2-one], for which, in experiment [1] (read-out: α5-GABAAR Ki), the Ki worked out at 2.82 nM. Besides, the inhibition at 0.1 µM in experiment [2] amounted to 51.3%.

For the compound `CNS(=O)(=O)C1CCN(c2ccc(OCc3c(C)nnn3-c3ccc(C(F)F)cc3)nn2)C1` (stereo not drawn) [Example 64, 1-(6-((1-(4-(Difluoromethyl)phenyl)-4-methyl-1H-1,2,3-triazol-5-yl)methoxy)pyridazin-3-yl)-N-methylpyrrolidine-3-sulfonamide], the Ki in experiment [1] (read-out: α5-GABAAR Ki) is 1.45 nM. In addition, in experiment [2], the inhibition at 0.1 µM is 41.1%.

Regarding `Cc1nnn(-c2ccc(C(F)F)cc2)c1COc1ccc(N2CCN(CC(F)(F)F)C(=O)C2)nn1` [Example 62, 4-(6-((1-(4-(Difluoromethyl)phenyl)-4-methyl-1H-1,2,3-triazol-5-yl)methoxy)pyridazin-3-yl)-1-(2,2,2-trifluoroethyl)piperazin-2-one], the Ki in experiment [1] (read-out: α5-GABAAR Ki) worked out at 1.18 nM. Further, the inhibition at 0.1 µM in experiment [2] was found to be 44.6%.

Regarding `Cc1nnn(-c2ccc(C(F)F)cc2)c1COc1ccc(N2CC[C@H]3CCNC(=O)[C@@H]3C2)nn1` (relative stereo) [Example 124, trans-7-(6-((1-(4-(Difluoromethyl)phenyl)-4-methyl-1H-1,2,3-triazol-5-yl)methoxy)pyridazin-3-yl)octahydro-2,7-naphthyridin-1(2H)-one], the Ki in experiment [1] (read-out: α5-GABAAR Ki) was 2.4 nM. Moreover, the inhibition at 0.1 µM in experiment [2] came to 48.4%.

For the compound `Cc1nnn(-c2ccc(C(F)F)cc2)c1COc1ccc(N2CC(C(=O)N3CC4CC3CO4)C2)nn1` (stereo not drawn) [Example 157, (2-Oxa-5-azabicyclo[2.2.1]heptan-5-yl)(1-(6-((1-(4-(difluoromethyl)phenyl)-4-methyl-1H-1,2,3-triazol-5-yl)methoxy)pyridazin-3-yl)azetidin-3-yl)methanone], in experiment [1] (read-out: α5-GABAAR Ki), the Ki was 3.53 nM. Further, the inhibition at 0.1 µM in experiment [2] turned out to be 44.2%.

In the case of `Cc1nnn(-c2ccc(C(F)F)cc2)c1COc1ccc(N2CCN3CCN(C)C(=O)[C@@H]3C2)nn1` [Example 107, (S)-8-(6-((1-(4-(Difluoromethyl)phenyl)-4-methyl-1H-1,2,3-triazol-5-yl)methoxy)pyridazin-3-yl)-2-methyloctahydro-1H-pyrazino[1,2-a]pyrazin-1-one], in experiment [1] (read-out: α5-GABAAR Ki), the Ki is 15.6 nM. Further, in experiment [2], the inhibition at 0.1 µM amounted to 49.2%.

As to `Cc1nnn(-c2ccc(C(F)F)cc2F)c1COc1ccc(N2CCN3CCNC(=O)[C@@H]3C2)nn1` [Example 168, (S)-8-(6-((1-(4-(Difluoromethyl)-2-fluorophenyl)-4-methyl-1H-1,2,3-triazol-5-yl)methoxy)pyridazin-3-yl)hexahydro-2H-pyrazino[1,2-a]pyrazin-1(6H)-one], the Ki in experiment [1] (read-out: α5-GABAAR Ki) was found to be 2.84 nM. In addition, the inhibition at 0.1 µM in experiment [2] is 42.4%.

For the compound `Cc1nnn(-c2ccc(C(F)F)cc2)c1COc1ccc(N2CCN(CC#N)C(=O)C2)nn1` [Example 99, 2-(4-(6-((1-(4-(Difluoromethyl)phenyl)-4-methyl-1H-1,2,3-triazol-5-yl)methoxy)pyridazin-3-yl)-2-oxopiperazin-1-yl)acetonitrile], in experiment [1] (read-out: α5-GABAAR Ki), the inhibitory constant (Ki) came out at 1.95 nM. Also, in experiment [2], the inhibition at 0.1 µM amounted to 48%.

Turning to `Cc1nnn(-c2ccc(C(F)F)cc2)c1COc1ccc(N2CCN3CCOC[C@@H]3C2)nn1` [Example 13, (S)-8-(6-((1-(4-(Difluoromethyl)phenyl)-4-methyl-1H-1,2,3-triazol-5-yl)methoxy)pyridazin-3-yl)octahydropyrazino[2,1-c][1,4]oxazine], the Ki in experiment [1] (read-out: α5-GABAAR Ki) worked out at 2.2 nM. Moreover, the inhibition at 0.1 µM in experiment [2] came to 43.3%.

In the case of `Cc1nnn(-c2ccc(C(F)F)cc2)c1COc1ccc(N2CC(CO)OC2=O)nn1` (stereo not drawn) [Example 66, 3-(6-((1-(4-(Difluoromethyl)phenyl)-4-methyl-1H-1,2,3-triazol-5-yl)methoxy)pyridazin-3-yl)-5-(hydroxymethyl)oxazolidin-2-one], in experiment [1] (read-out: α5-GABAAR Ki), the Ki stood at 4.07 nM. Moreover, in experiment [2], the inhibition at 0.1 µM came to 52.7%.

Turning to `Cc1nnn(-c2ccc(C(F)F)cc2)c1COc1ccc(N2CCN(C3CCOC3)C(=O)C2)nn1` (stereo not drawn) [Example 58, 4-(6-((1-(4-(Difluoromethyl)phenyl)-4-methyl-1H-1,2,3-triazol-5-yl)methoxy)pyridazin-3-yl)-1-(tetrahydrofuran-3-yl)piperazin-2-one], the Ki in experiment [1] (read-out: α5-GABAAR Ki) is 1.85 nM. The inhibition at 0.1 µM in experiment [2] stood at 46%.

By Ki is commonly meant the dissociation constant of the complex between target and ligand, obtained from inhibition or displacement.

These data come from US20250136581A1, “SUBSTITUTED TRIAZOLE DERIVATIVE, PREPARATION METHOD THEREFOR, PHARMACEUTICAL COMPOSITION THEREOF, AND USE THEREOF” (SHANGHAI SIMR BIOTECHNOLOGY CO., LTD., priority 2021, published 2025).
